Measured values as given in ChEMBL document CHEMBL1144805, “The cephalostatin way of apoptosis” (2008).

Key:
[1] = tested on: CCRF-CEM; test: Cytotoxicity against human CCRF-CEM cells; assay type: functional
[2] = tested on: EKVX; test: Cytotoxicity against human EKVX cells; assay type: functional
[3] = tested on: HOP-18; test: Cytotoxicity against human HOP18 cells; assay type: functional
[4] = tested on: HOP-62; test: Cytotoxicity against human HOP62 cells; assay type: functional
[5] = tested on: HOP-92; test: Cytotoxicity against human HOP92 cells; assay type: functional
[6] = tested on: NCI-H226; test: Cytotoxicity against human NCI-H226 cells; assay type: functional
[7] = tested on: NCI-H23; test: Cytotoxicity against human NCI-H23 cells; assay type: functional
[8] = tested on: NCI-H322M; test: Cytotoxicity against human NCI-H322M cells; assay type: functional
[9] = tested on: NCI-H460; test: Cytotoxicity against human NCI-H460 cells; assay type: functional
[10] = tested on: NCI-H522; test: Cytotoxicity against human NCI-H522 cells; assay type: functional
[11] = Cytotoxicity against human LXFL529 cells; assay type: functional; settings: LXFL 529
[12] = Cytotoxicity against human DMS144 cells; assay type: functional
[13] = tested on: DMS-273; test: Cytotoxicity against human DMS273 cells; assay type: functional
[14] = tested on: COLO 205; test: Cytotoxicity against human COLO205 cells; assay type: functional
[15] = tested on: DLD-1; test: Cytotoxicity against human DLD1 cells; assay type: functional
[16] = Cytotoxicity against human HCC2996 cells; assay type: functional
[17] = tested on: HCT-116; test: Cytotoxicity against human HCT116 cells; assay type: functional
[18] = tested on: HCT-15; test: Cytotoxicity against human HCT15 cells; assay type: functional
[19] = tested on: HT-29; test: Cytotoxicity against human HT29 cells; assay type: functional
[20] = tested on: KM12; test: Cytotoxicity against human KM12 cells; assay type: functional
[21] = tested on: KM-20L2; test: Cytotoxicity against human KM20L2 cells; assay type: functional
[22] = tested on: SW-620; test: Cytotoxicity against human SW620 cells; assay type: functional
[23] = tested on: SF-268; test: Cytotoxicity against human SF268 cells; assay type: functional
[24] = tested on: SF-295; test: Cytotoxicity against human SF295 cells; assay type: functional
[25] = tested on: SF-539; test: Cytotoxicity against human SF539 cells; assay type: functional
[26] = tested on: SNB-19; test: Cytotoxicity against human SNB19 cells; assay type: functional
[27] = tested on: SNB-75; test: Cytotoxicity against human SNB75 cells; assay type: functional
[28] = tested on: SNB-78; test: Cytotoxicity against human SNB78 cells; assay type: functional
[29] = tested on: U-251; test: Cytotoxicity against human U251 cells; assay type: functional
[30] = tested on: XF498; test: Cytotoxicity against human XF498 cells; assay type: functional
[31] = tested on: LOX IMVI; test: Cytotoxicity against human LOXIMVI cells; assay type: functional
[32] = tested on: M14; test: Cytotoxicity against human M14 cells; assay type: functional
[33] = tested on: M19-MEL; test: Cytotoxicity against human M19-MEL cells; assay type: functional
[34] = tested on: SK-MEL-2; test: Cytotoxicity against human SK-MEL-2 cells; assay type: functional
[35] = tested on: SK-MEL-28; test: Cytotoxicity against human SK-MEL-28 cells; assay type: functional
[36] = tested on: SK-MEL-5; test: Cytotoxicity against human SK-MEL-5 cells; assay type: functional
[37] = tested on: UACC-257; test: Cytotoxicity against human UACC257 cells; assay type: functional
[38] = tested on: UACC-62; test: Cytotoxicity against human UACC62 cells; assay type: functional
[39] = tested on: IGROV-1; test: Cytotoxicity against human IGROV1 cells; assay type: functional
[40] = tested on: OVCAR-3; test: Cytotoxicity against human OVCAR-3 cells; assay type: functional
[41] = tested on: OVCAR-4; test: Cytotoxicity against human OVCAR4 cells; assay type: functional
[42] = tested on: OVCAR-5; test: Cytotoxicity against human OVCAR5 cells; assay type: functional
[43] = tested on: OVCAR-8; test: Cytotoxicity against human OVCAR8 cells; assay type: functional
[44] = tested on: SK-OV-3; test: Cytotoxicity against human SK-OV-3 cells; assay type: functional
[45] = Cytotoxicity against human […] cells; assay type: functional
[46] = tested on: ACHN; test: Cytotoxicity against human ACHN cells; assay type: functional
[47] = tested on: CAKI-1; test: Cytotoxicity against human CAKI1 cells; assay type: functional
[48] = tested on: RXF 393; test: Cytotoxicity against human RXF393 cells; assay type: functional
[49] = Cytotoxicity against human RXF631 cells; assay type: functional; settings: RXF 631
[50] = tested on: SN12C; test: Cytotoxicity against human SN12C cells; assay type: functional
[51] = Cytotoxicity against human TK20 cells; assay type: functional
[52] = tested on: UO-31; test: Cytotoxicity against human UO31 cells; assay type: functional
[53] = tested on: PC-3; test: Cytotoxicity against human PC3 cells; assay type: functional
[54] = tested on: DU-145; test: Cytotoxicity against human DU145 cells; assay type: functional
[55] = tested on: MCF7; test: Cytotoxicity against human MCF7 cells; assay type: functional
[56] = tested on: NCI/ADR-RES; test: Cytotoxicity against human NCI/ADR-RES cells; assay type: functional
[57] = tested on: MDA-MB-231; test: Cytotoxicity against human MDA-MB-231 cells; assay type: functional
[58] = tested on: Hs-578T; test: Cytotoxicity against human HS578T cells; assay type: functional
[59] = tested on: MDA-MB-435; test: Cytotoxicity against human MDA-MB-435 cells; assay type: functional
[60] = tested on: MDA-N; test: Cytotoxicity against human MDAN cells; assay type: functional
[61] = tested on: BT-549; test: Cytotoxicity against human BT549 cells; assay type: functional
[62] = tested on: T47D; test: Cytotoxicity against human T47D cells; assay type: functional
[63] = tested on: SR; test: Cytotoxicity against human SR cells; assay type: functional
[64] = tested on: A549; test: Cytotoxicity against human A549 cells; assay type: functional
[65] = tested on: MOLT-4; test: Cytotoxicity against human MOLT4 cells; assay type: functional
[66] = tested on: RPMI-8226; test: Cytotoxicity against human RPMI8226 cells; assay type: functional
[67] = Cytotoxicity against human HL60(TB) cells; assay type: functional, HL-60(TB); settings: HL-60
[68] = tested on: K562; test: Cytotoxicity against human K562 cells; assay type: functional
[69] = tested on: Malme-3M; test: Cytotoxicity against human MALME3M cells; assay type: functional
[70] = Cytotoxicity against human 786-O cells; assay type: functional; settings: 786-0

## C[C@@H]1[C@]2(O[C@H]3C=C4[C@@H]5CC[C@H]6Cc7nc8c(nc7C[C@]6(C)[C@H]5C[C@@H](O)[C@]4(C)[C@]31O)C[C@@H]1CC[C@H]3C4=CC[C@@H]5[C@H](C)[C@@]6(OC[C@]45C(=O)C[C@@H]3[C@@]1(C)C8)OC(C)(C)C[C@H]6O)O[C@](C)(CO)C[C@H]2O [CEPHALOSTATIN 1]
[1]
  GI50: 0.309 nM
[2]
  GI50: 5.37 nM
[3]
  GI50: 72.4 nM
[4]
  GI50: 0.24 nM
[5]
  GI50: 0.661 nM
[6]
  GI50: 275 nM
[7]
  GI50: 550 nM
[8]
  GI50: 91.2 nM
[9]
  GI50: 0.269 nM
[10]
  GI50: 120 nM
[11]
  GI50: 0.331 nM
[12]
  GI50: 0.166 nM
[13]
  GI50: 0.11 nM
[14]
  GI50: 1.55 nM
[15]
  GI50: 41.7 nM
[16]
  GI50: 95.5 nM
[17]
  GI50: 0.692 nM
[18]
  GI50: 4.07 nM
[19]
  GI50: 2.82 nM
[20]
  GI50: 1.86 nM
[21]
  GI50: 1.2 nM
[22]
  GI50: 0.977 nM
[23]
  GI50: 1.1 nM
[24]
  GI50: 0.123 nM
[25]
  GI50: 0.151 nM
[26]
  GI50: 4.57 nM
[27]
  GI50: 0.1 nM
[28]
  GI50: 0.776 nM
[29]
  GI50: 0.182 nM
[30]
  GI50: 0.724 nM
[31]
  GI50: 0.324 nM
[32]
  GI50: 0.955 nM
[33]
  GI50: 617 nM
[34]
  GI50: 1.1 nM
[35]
  GI50: 0.617 nM
[36]
  GI50: 2.34 nM
[37]
  GI50: 4.27 nM
[38]
  GI50: 0.316 nM
[39]
  GI50: 3.98 nM
[40]
  GI50: 70.8 nM
[41]
  GI50: 38.9 nM
[42]
  GI50: 13.2 nM
[43]
  GI50: 60.3 nM
[44]
  GI50: 1.02 nM
[45]
  GI50: 1.41 nM
[46]
  GI50: 8.13 nM
[47]
  GI50: 1.55 nM
[48]
  GI50: 0.1 nM
[49]
  GI50: 0.309 nM
[50]
  GI50: 295 nM
[51]
  GI50: 33.9 nM
[52]
  GI50: 0.617 nM
[53]
  GI50: 0.288 nM
[54]
  GI50: 53.7 nM
[55]
  GI50: 0.355 nM
[56]
  GI50: 69.2 nM
[57]
  GI50: 1.2 nM
[58]
  GI50: 0.112 nM
[59]
  GI50: 0.813 nM
[60]
  GI50: 1.86 nM
[61]
  GI50: 0.759 nM
[62]
  GI50: 245 nM
[63]
  GI50: 0.209 nM
[64]
  GI50: 0.513 nM
[65]
  GI50: 0.204 nM
[66]
  GI50: 0.107 nM
[67]
  GI50: 0.355 nM
[68]
  GI50: 0.617 nM
[69]
  GI50: 8.13 nM
[70]
  GI50: 0.17 nM
